Results published in PubChem BioAssay (NCI).
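In this assay, cells in 96-well plates receive the compound at five concentrations for 48 hours. Endpoints are linearly interpolated between the surrounding concentrations. At the GI50, growth is halved. TGI is the concentration that stops growth completely.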 *1 amine or outer side, *2 acyl side, *3 side chain or, on linkers, in order; H or OH if unused. Where a SMILES comes first, the peptide text is derived from it. [ ]: non-standard residue; d: D form. The star is where a group is joined. X11 = C/C=C/CC(C)C(O)[C@H](N[*:1])C(=O)[*:2]; Decanoyl = CCCCCCCCCC(=O)*; Leu(ol) = CC(C)C[C@H](N)CO; Aib = CC(C)(N)C(=O)O

How the values were obtained:
Experiment in all cases: NCI-60 cell line screen, 48 h
786-0 renal = system: 786-0 renal
A498 renal = system: A498 renal
A549 NSCLC = system: A549 NSCLC
ACHN renal = system: ACHN renal
BT-549 breast = system: BT-549 breast
CAKI-1 renal = system: CAKI-1 renal
CCRF-CEM leukemia = system: CCRF-CEM leukemia
COLO 205 colon = system: COLO 205 colon
DU-145 prostate = system: DU-145 prostate
EKVX NSCLC = system: EKVX NSCLC
HCC-2998 colon = system: HCC-2998 colon
HCT-116 colon = system: HCT-116 colon
HCT-15 colon = system: HCT-15 colon
HL-60(TB) leukemia = system: HL-60(TB) leukemia
HOP-62 NSCLC = system: HOP-62 NSCLC
HOP-92 NSCLC = system: HOP-92 NSCLC
HS 578T breast = system: HS 578T breast
HT29 colon = system: HT29 colon
IGROV1 ovarian = system: IGROV1 ovarian
K-562 leukemia = system: K-562 leukemia
KM12 colon = system: KM12 colon
LOX IMVI melanoma = system: LOX IMVI melanoma
M14 melanoma = system: M14 melanoma
MALME-3M melanoma = system: MALME-3M melanoma
MCF7 breast = system: MCF7 breast
MDA-MB-231 breast = system: MDA-MB-231 breast
MDA-MB-435 = system: MDA-MB-435
MOLT-4 leukemia = system: MOLT-4 leukemia
NCI-H226 lung = system: NCI-H226 lung
NCI-H23 lung = system: NCI-H23 lung
NCI-H460 lung = system: NCI-H460 lung
NCI-H522 lung = system: NCI-H522 lung
NCI/ADR-RES ovarian = system: NCI/ADR-RES ovarian
OVCAR-3 ovarian = system: OVCAR-3 ovarian
OVCAR-4 ovarian = system: OVCAR-4 ovarian
OVCAR-5 ovarian = system: OVCAR-5 ovarian
OVCAR-8 ovarian = system: OVCAR-8 ovarian
PC-3 prostate = system: PC-3 prostate
RPMI-8226 leukemia = system: RPMI-8226 leukemia
RXF 393 renal = system: RXF 393 renal
SF-268 CNS = system: SF-268 CNS
SF-295 CNS = system: SF-295 CNS
SF-539 CNS = system: SF-539 CNS
SK-MEL-2 melanoma = system: SK-MEL-2 melanoma
SK-MEL-28 melanoma = system: SK-MEL-28 melanoma
SK-MEL-5 melanoma = system: SK-MEL-5 melanoma
SK-OV-3 ovarian = system: SK-OV-3 ovarian
SN12C renal = system: SN12C renal
SNB-19 CNS = system: SNB-19 CNS
SNB-75 CNS = system: SNB-75 CNS
SR leukemia = system: SR leukemia
SW-620 colon = system: SW-620 colon
T-47D breast = system: T-47D breast
TK-10 renal = system: TK-10 renal
U251 CNS = system: U251 CNS
UACC-257 melanoma = system: UACC-257 melanoma
UACC-62 melanoma = system: UACC-62 melanoma
UO-31 renal = system: UO-31 renal

SMILES: C/C=C/CC(C)C(O)[C@H](NC(=O)[C@@H]1CCCN1C(=O)C(C)(C)NC(=O)CCCCCCCCC)C(=O)NC(C)(C)C(=O)N[C@@H](CCC(N)=O)C(=O)N[C@H](CCC(N)=O)C(=O)NC(C)(C)C(=O)NC(C)(C)C(=O)N[C@@H](CCC(N)=O)C(=O)N[C@H](CC(C)C)C(=O)N[C@H](CO)CC(C)C (stereo partly drawn) (Decanoyl-[Aib]P[X11][Aib]Q[dQ][Aib][Aib]Q[dL][Leu(ol)])
- GI50 (786-0 renal): 1.76 µM
- TGI (786-0 renal): 3.33 µM
- GI50 (A498 renal): 1.99 µM
- TGI (A498 renal): 4.07 µM
- GI50 (A549 NSCLC): 2.28 µM
- GI50 (ACHN renal): 2.5 µM
- TGI (ACHN renal): 7.43 µM
- GI50 (BT-549 breast): 1.84 µM
- TGI (BT-549 breast): 3.37 µM
- GI50 (CAKI-1 renal): 2.21 µM
- TGI (CAKI-1 renal): 6.09 µM
- GI50 (CCRF-CEM leukemia): 1.87 µM
- TGI (CCRF-CEM leukemia): 4 µM
- GI50 (COLO 205 colon): 1.61 µM
- TGI (COLO 205 colon): 3.33 µM
- GI50 (DU-145 prostate): 1.46 µM
- TGI (DU-145 prostate): 2.85 µM
- GI50 (EKVX NSCLC): 1.61 µM
- TGI (EKVX NSCLC): 3.71 µM
- GI50 (HCC-2998 colon): 2.13 µM
- TGI (HCC-2998 colon): 5.25 µM
- GI50 (HCT-116 colon): 2.21 µM
- TGI (HCT-116 colon): 5.16 µM
- GI50 (HCT-15 colon): 2.44 µM
- TGI (HCT-15 colon): 7.08 µM
- GI50 (HL-60(TB) leukemia): 2.2 µM
- TGI (HL-60(TB) leukemia): 5.22 µM
- GI50 (HOP-62 NSCLC): 1.64 µM
- TGI (HOP-62 NSCLC): 3.68 µM
- GI50 (HOP-92 NSCLC): 1.66 µM
- TGI (HOP-92 NSCLC): 3.97 µM
- GI50 (HS 578T breast): 1.54 µM
- TGI (HS 578T breast): 3.28 µM
- GI50 (HT29 colon): 2.57 µM
- GI50 (IGROV1 ovarian): 2.3 µM
- TGI (IGROV1 ovarian): 7.23 µM
- GI50 (K-562 leukemia): 1.66 µM
- TGI (K-562 leukemia): 4.85 µM
- GI50 (KM12 colon): 1.84 µM
- TGI (KM12 colon): 3.68 µM
- GI50 (LOX IMVI melanoma): 1.72 µM
- TGI (LOX IMVI melanoma): 3.45 µM
- GI50 (M14 melanoma): 1.69 µM
- TGI (M14 melanoma): 3.35 µM
- GI50 (MALME-3M melanoma): 1.4 µM
- TGI (MALME-3M melanoma): 2.76 µM
- GI50 (MCF7 breast): 1.63 µM
- TGI (MCF7 breast): 3.53 µM
- GI50 (MDA-MB-231 breast): 1.63 µM
- TGI (MDA-MB-231 breast): 3.1 µM
- GI50 (MDA-MB-435): 1.68 µM
- TGI (MDA-MB-435): 3.07 µM
- GI50 (MOLT-4 leukemia): 2.1 µM
- TGI (MOLT-4 leukemia): 6.44 µM
- GI50 (NCI-H226 lung): 1.64 µM
- TGI (NCI-H226 lung): 3.97 µM
- GI50 (NCI-H23 lung): 2.09 µM
- TGI (NCI-H23 lung): 5.91 µM
- GI50 (NCI-H460 lung): 1.53 µM
- TGI (NCI-H460 lung): 3.06 µM
- GI50 (NCI-H522 lung): 1.67 µM
- TGI (NCI-H522 lung): 3.4 µM
- GI50 (NCI/ADR-RES ovarian): 2.39 µM
- TGI (NCI/ADR-RES ovarian): 6.86 µM
- GI50 (OVCAR-3 ovarian): 1.91 µM
- TGI (OVCAR-3 ovarian): 3.95 µM
- GI50 (OVCAR-4 ovarian): 2.95 µM
- GI50 (OVCAR-5 ovarian): 1.87 µM
- TGI (OVCAR-5 ovarian): 3.96 µM
- GI50 (OVCAR-8 ovarian): 1.5 µM
- TGI (OVCAR-8 ovarian): 3.76 µM
- GI50 (PC-3 prostate): 1.14 µM
- TGI (PC-3 prostate): 3.18 µM
- GI50 (RPMI-8226 leukemia): 1.85 µM
- TGI (RPMI-8226 leukemia): 4.26 µM
- GI50 (RXF 393 renal): 2.14 µM
- TGI (RXF 393 renal): 3.98 µM
- GI50 (SF-268 CNS): 1.75 µM
- TGI (SF-268 CNS): 3.7 µM
- GI50 (SF-295 CNS): 1.39 µM
- TGI (SF-295 CNS): 2.9 µM
- GI50 (SF-539 CNS): 1.62 µM
- TGI (SF-539 CNS): 3 µM
- GI50 (SK-MEL-2 melanoma): 1.86 µM
- TGI (SK-MEL-2 melanoma): 4.22 µM
- GI50 (SK-MEL-28 melanoma): 1.69 µM
- TGI (SK-MEL-28 melanoma): 3.1 µM
- GI50 (SK-MEL-5 melanoma): 1.72 µM
- TGI (SK-MEL-5 melanoma): 3.16 µM
- GI50 (SK-OV-3 ovarian): 3.11 µM
- TGI (SK-OV-3 ovarian): 13.3 µM
- GI50 (SN12C renal): 1.93 µM
- TGI (SN12C renal): 5.35 µM
- GI50 (SNB-19 CNS): 1.55 µM
- TGI (SNB-19 CNS): 3.07 µM
- GI50 (SNB-75 CNS): 1.74 µM
- TGI (SNB-75 CNS): 3.22 µM
- GI50 (SR leukemia): 1.95 µM
- TGI (SR leukemia): 8.47 µM
- GI50 (SW-620 colon): 2.38 µM
- TGI (SW-620 colon): 7.11 µM
- GI50 (T-47D breast): 2.09 µM
- TGI (T-47D breast): 5.67 µM
- GI50 (TK-10 renal): 2.27 µM
- TGI (TK-10 renal): 5.57 µM
- GI50 (U251 CNS): 1.46 µM
- TGI (U251 CNS): 2.97 µM
- GI50 (UACC-257 melanoma): 1.54 µM
- TGI (UACC-257 melanoma): 3.09 µM
- GI50 (UACC-62 melanoma): 1.61 µM
- TGI (UACC-62 melanoma): 3.19 µM
- GI50 (UO-31 renal): 1.59 µM
- TGI (UO-31 renal): 4.22 µM
